Laboratory results: ChEMBL document CHEMBL5104161, “Novel analgesic/anti-inflammatory agents: 1,5-Diarylpyrrole nitrooxyethyl sulfides and related compounds as Cyclooxygenase-2 inhibitors containing a nitric oxide donor moiety endowed with vasorelaxant properties” (Eur J Med Chem, 2022)

How the values were obtained:
[1] = target: T1, Prostaglandin G/H synthase 1 (Mus musculus, UniProt P22437); experiment: Inhibition of COX1 in mouse J774 cells using arachidonic acid as substrate preincubated for 15 mins followed substrate addition and assessed as inhibition of PGE2 production after 30 mins by enzyme immuno-assay (EIA); assay type: cell-based
T1 sequence (P22437 whole entry): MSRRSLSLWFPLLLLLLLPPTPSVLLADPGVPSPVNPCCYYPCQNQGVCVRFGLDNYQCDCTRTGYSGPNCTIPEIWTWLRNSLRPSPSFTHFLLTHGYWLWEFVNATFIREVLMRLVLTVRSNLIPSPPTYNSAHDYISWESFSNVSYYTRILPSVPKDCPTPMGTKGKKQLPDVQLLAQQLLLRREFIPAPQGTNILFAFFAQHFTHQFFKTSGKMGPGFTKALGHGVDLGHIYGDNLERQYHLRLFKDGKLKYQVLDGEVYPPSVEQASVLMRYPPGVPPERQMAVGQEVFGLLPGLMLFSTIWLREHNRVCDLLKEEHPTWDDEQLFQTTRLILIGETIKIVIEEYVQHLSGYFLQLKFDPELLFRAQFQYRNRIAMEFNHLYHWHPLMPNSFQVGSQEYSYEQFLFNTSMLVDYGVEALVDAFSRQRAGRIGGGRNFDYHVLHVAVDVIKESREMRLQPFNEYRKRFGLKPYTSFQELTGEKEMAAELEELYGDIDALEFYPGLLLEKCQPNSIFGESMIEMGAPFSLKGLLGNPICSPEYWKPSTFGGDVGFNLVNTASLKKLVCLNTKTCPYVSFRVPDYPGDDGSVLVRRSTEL

[2] = target: T2, Prostaglandin G/H synthase 2 (Mus musculus, UniProt Q05769); experiment: Inhibition of COX2 in LPS-stimulated mouse J774 cells assessed as inhibition of PGE2 production and measured after 24 hrs by enzyme immuno-assay (EIA); assay type: cell-based
T2 sequence (Q05769 whole entry): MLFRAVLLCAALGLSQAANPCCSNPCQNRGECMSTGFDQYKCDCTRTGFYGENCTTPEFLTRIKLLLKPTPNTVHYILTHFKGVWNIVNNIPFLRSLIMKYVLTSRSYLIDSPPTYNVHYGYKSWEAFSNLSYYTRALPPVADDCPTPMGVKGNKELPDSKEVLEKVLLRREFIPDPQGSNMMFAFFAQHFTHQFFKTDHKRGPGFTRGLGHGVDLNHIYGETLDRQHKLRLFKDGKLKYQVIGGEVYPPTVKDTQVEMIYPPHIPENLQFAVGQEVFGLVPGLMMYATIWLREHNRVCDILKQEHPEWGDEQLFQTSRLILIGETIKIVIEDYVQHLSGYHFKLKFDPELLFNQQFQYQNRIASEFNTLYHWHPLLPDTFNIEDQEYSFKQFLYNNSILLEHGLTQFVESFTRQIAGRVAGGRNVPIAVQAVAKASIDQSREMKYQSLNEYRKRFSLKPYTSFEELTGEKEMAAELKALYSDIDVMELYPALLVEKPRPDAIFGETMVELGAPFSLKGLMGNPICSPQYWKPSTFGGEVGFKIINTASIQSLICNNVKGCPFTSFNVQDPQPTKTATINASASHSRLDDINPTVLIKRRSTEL

J774 = experiment: Ratio IC50 for inhibition of COX1 in mouse J774 cells over inhibition of COX2 in mouse J774 cells; assay type: cell-based
[3] = Intrinsic clearance in human liver microsomes at 1 uM preincubated for 10 mins and measured up to 60 mins by LC-MS/MS analysis; assay type: ADME, Microsome; conditions: read-out: CLH
[4] = Half-life in human liver microsomes at 1 uM preincubated for 10 mins and measured up to 60 mins by LC-MS/MS analysis; assay type: ADME, Microsome
[5] = Intrinsic clearance in mouse liver microsomes at 1 uM preincubated for 10 mins and measured up to 60 mins by LC-MS/MS analysis; assay type: ADME, Microsome; conditions: read-out: CLH
[6] = Half-life in mouse liver microsomes at 1 uM preincubated for 10 mins and measured up to 60 mins by LC-MS/MS analysis; assay type: ADME, Microsome
Aorta = experiment: Vasorelaxant activity in Sprague-Dawley rat aortic rings assessed as reduction in L-phenylephrine-induced contractions at 0.01 to 100 uM relative to control; assay type: functional; conditions: dose 0.01-100 µM
Mus musculus [7] = experiment: Analgesic activity against acetic acid-induced male CD1 albino mouse model assessed as number of writhes at 10 mg/kg, po measured after 30 mins by abdominal constriction test; assay type: functional; conditions: 0.5 h
Mus musculus [8] = experiment: Analgesic activity against acetic acid-induced male CD1 albino mouse model assessed as number of writhes at 20 mg/kg, po measured after 30 mins by abdominal constriction test; assay type: functional; conditions: 0.5 h
Mus musculus [9] = experiment: Analgesic activity against acetic acid-induced male CD1 albino mouse model assessed as number of writhes at 30 mg/kg, po measured after 30 mins by abdominal constriction test; assay type: functional; conditions: 0.5 h
Rattus norvegicus [10] = experiment: Anti-hyperalgesic activity in carrageenan-induced hyperalgesia male Sprague-Dawley rat model assessed as paw withdrawal threshold at 20 mg/kg, po measured 15 mins after compound administration by paw pressure test; assay type: functional; conditions: 0.25 h
Rattus norvegicus [11] = experiment: Anti-hyperalgesic activity in carrageenan-induced hyperalgesia male Sprague-Dawley rat model assessed as paw withdrawal threshold at 20 mg/kg, po measured 30 mins after compound administration by paw pressure test; assay type: functional; conditions: 0.5 h
Rattus norvegicus [12] = experiment: Anti-hyperalgesic activity in carrageenan-induced hyperalgesia male Sprague-Dawley rat model assessed as paw withdrawal threshold at 20 mg/kg, po measured 45 mins after compound administration by paw pressure test; assay type: functional; conditions: 0.75 h
Rattus norvegicus [13] = experiment: Anti-hyperalgesic activity in carrageenan-induced hyperalgesia male Sprague-Dawley rat model assessed as paw withdrawal threshold at 20 mg/kg, po measured 60 mins after compound administration by paw pressure test; assay type: functional; conditions: 1 h
Rattus norvegicus [14] = experiment: Anti-hyperalgesic activity in carrageenan-induced hyperalgesia male Sprague-Dawley rat model assessed as paw edema volume at 20 mg/kg, po measured 30 mins after compound administration by plethysmometer analysis; assay type: functional; conditions: 0.5 h

Compound	IC50 [1] [nM]	IC50 [2] [nM]	Ratio IC50 (J774)	microsomal CLint at 1 µM [3] [µL/min/mg]	half-life at 1 µM [4] [min]	microsomal CLint at 1 µM [5] [µL/min/mg]	half-life at 1 µM [6] [min]	Efficacy (Aorta) [%]	Activity (Mus musculus [7])	Activity (Mus musculus [8])	Activity (Mus musculus [9])	Activity (Rattus norvegicus [10]) [g]	Activity (Rattus norvegicus [11]) [g]	Activity (Rattus norvegicus [12]) [g]	Activity (Rattus norvegicus [13]) [g]	Activity (Rattus norvegicus [14]) [mL]
Cc1c(CC[S+]([O-])CCO)cc(-c2ccc(S(C)(=O)=O)cc2)n1-c1ccc(F)c(F)c1 (centres undefined)	> 10000	140	> 71.4	–	–	–	–	–	–	–	–	–	–	–	–	–
Cc1c(CCSCCO[N+](=O)[O-])cc(-c2ccc(S(C)(=O)=O)cc2)n1-c1ccc(F)cc1	> 10000	9	> 1110	132	10.5	61.2	22.8	59	24.2	20.5	20.6	39.9	45.9	44.7	37.5	2.18
Cc1c(CCOCCO[N+](=O)[O-])cc(-c2ccc(S(C)(=O)=O)cc2)n1-c1ccc(F)c(F)c1	–	–	> 10.9	–	–	–	–	–	–	–	–	–	–	–	–	–
Cc1c(CCOCCO[N+](=O)[O-])cc(-c2ccc(S(C)(=O)=O)cc2)n1-c1ccc(F)cc1	–	–	> 714	–	–	–	–	59	–	–	–	–	–	–	–	–
Cc1c(CCSCCO[N+](=O)[O-])cc(-c2ccc(S(C)(=O)=O)cc2)n1-c1ccc(F)c(F)c1	> 10000	16	> 625	–	–	–	–	59	22.5	19	20.7	40.6	46.1	45.7	37.1	2.31
Cc1c(CC[S+]([O-])CCO[N+](=O)[O-])cc(-c2ccc(S(C)(=O)=O)cc2)n1-c1ccc(F)c(F)c1 (centres undefined)	> 10000	3	> 3330	–	–	–	–	59	25.9	20.1	21.3	39.8	48.2	44.2	38.3	2.2
Cc1c(CCSCCO)cc(-c2ccc(S(C)(=O)=O)cc2)n1-c1ccc(F)c(F)c1	> 10000	17	> 588	–	–	–	–	–	23.8	19.6	17.4	37.8	46.6	45.3	39.6	2.09
Cc1c(CC[S+]([O-])CCO)cc(-c2ccc(S(C)(=O)=O)cc2)n1-c1ccccc1 (centres undefined)	> 10000	320	> 31.2	–	–	–	–	–	–	–	–	–	–	–	–	–
CCOc1ccc2ccc(=O)oc2c1	–	–	–	113	12.6	297	4.7	–	–	–	–	–	–	–	–	–
Cc1c(CCSCCO)cc(-c2ccc(S(C)(=O)=O)cc2)n1-c1ccc(F)cc1	> 10000	8	> 1250	39.2	36.2	73.2	19.2	–	26.5	23.1	21.5	41.5	48.2	48.7	38.2	2.22
Cc1c(CC[S+]([O-])CCO)cc(-c2ccc(S(C)(=O)=O)cc2)n1-c1ccc(F)cc1 (centres undefined)	> 10000	916	> 11	3.2	470	9.7	142	–	–	–	–	–	–	–	–	–
Cc1c(CCSCCO[N+](=O)[O-])cc(-c2ccc(S(C)(=O)=O)cc2)n1-c1ccccc1	> 10000	29	> 345	–	–	–	–	59	–	–	–	–	–	–	–	–
Cc1c(CC[S+]([O-])CCO[N+](=O)[O-])cc(-c2ccc(S(C)(=O)=O)cc2)n1-c1ccccc1 (centres undefined)	> 10000	74	> 135	–	–	–	–	59	–	–	–	–	–	–	–	–
Cc1c(CCOCCO[N+](=O)[O-])cc(-c2ccc(S(C)(=O)=O)cc2)n1-c1ccccc1	–	–	> 588	–	–	–	–	–	–	–	–	–	–	–	–	–
Cc1c(CC[S+]([O-])CCO[N+](=O)[O-])cc(-c2ccc(S(C)(=O)=O)cc2)n1-c1ccc(F)cc1 (centres undefined)	> 10000	5	> 2000	39.9	34.7	40.3	35.1	–	29.2	21.8	18	42.3	47.2	46.1	36.3	2.25
Cc1c(CCSCCO)cc(-c2ccc(S(C)(=O)=O)cc2)n1-c1ccccc1	> 10000	25	> 400	–	–	–	–	–	–	–	–	–	–	–	–	–
Cc1c(CCOCCO)cc(-c2ccc(S(C)(=O)=O)cc2)n1-c1ccc(F)c(F)c1	–	–	> 23.8	–	–	–	–	–	–	–	–	–	–	–	–	–
